Measurements published in US8048879B2, “Substituted 4,5,6,7-tetrahydro-isoxazolo[4,5-c]pyridine compounds and use thereof for producing medicaments” (Gruenenthal GmbH, priority 2005, dated 2011).

test system: batrachotoxin (BTX) binding site of the sodium channel; assay: Affinity for the batrachotoxin (BTX) binding site of the sodium channel, [3H]-batrachotoxinin A20 α-benzoate, rat cerebrocortex synaptosomes; conditions: test concentration not given

| Structure (SMILES) | BTX inhibition (rat) % inhibition [%] |
| --- | --- |
| COCCNC(=O)c1noc2c1CN(C(=O)c1ccc(C(F)(F)F)c(F)c1)CC2 [Example 153, 5-(3-fluoro-4-(trifluoromethyl)benzoyl)-N-(2-methoxyethyl)-4,5,6,7-tetrahydroisoxazolo[4,5-c]pyridine-3-carboxamide] | 28 |
| COc1ccc(NC(=O)N2CCc3onc(C(=O)NCc4ccc(S(N)(=O)=O)cc4)c3C2)cc1 [Example 154, N^5-(4-methoxyphenyl)-N^3-(4-sulfamoylbenzyl)-6,7-dihydroisoxazolo[4,5-c]pyridine-3,5(4H)-dicarboxamide] | 4 |
| O=C(NCCN1CCCC1)c1noc2c1CN(C(=O)COc1cccc(Cl)c1)CC2 [Example 155, 5-(2-(3-chlorophenoxy)acetyl)-N-(2-(pyrrolidin-1-yl)ethyl)-4,5,6,7-tetrahydroisoxazolo[4,5-c]pyridine-3-carboxamide] | 64 |
| O=C(Nc1ccccc1)c1noc2c1CN(C(=O)c1ccccc1F)CC2 [Example 156, 5-(2-fluorobenzoyl)-N-phenyl-4,5,6,7-tetrahydroisoxazolo[4,5-c]pyridine-3-carboxamide] | 26 |
| Cc1ccc(S(=O)(=O)N2CCc3onc(C(=O)NCc4ccc(S(N)(=O)=O)cc4)c3C2)cc1 [Example 157, N-(4-sulfamoylbenzyl)-5-tosyl-4,5,6,7-tetrahydroisoxazolo[4,5-c]pyridine-3-carboxamide] | 17 |
